Among the data in the supplement of paper PMC10307832 are relative viability values, retold here.

Common to all, as to assay: relative viability (nuclei count vs DMSO), 5 days (fraction); higher = more cells survive
Compound in the experiment “GSK126 + Decitabine”: CC[C@H](C)N1C=C(C2=C(C=C(C=C21)C3=CN=C(C=C3)N4CCNCC4)C(=O)NCC5=C(C=C(NC5=O)C)C)C [GSK126] + Nc1ncn([C@H]2C[C@H](O)[C@@H](CO)O2)c(=O)n1 [Decitabine] (partner 2 µM)
The method in brief:
(§1)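 Relative viability equals treated-well nuclei counts divided by vehicle-well nuclei counts. Counts came from 4× images of lung cancer cell lines grown in 1536-well plates for 5 days after pin-tool dosing on the day after seeding. Dosing used one drug alone or a fixed anchor-drug dose plus five library-drug doses (not always all listed) in √10 steps, and values are medians of duplicate plates.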

Compound in the experiment “MLN4924 + Pictilisib”: NS(=O)(=O)OC[C@@H]1C[C@@H](n2ccc3c(N[C@H]4CCc5ccccc54)ncnc32)C[C@@H]1O [MLN4924] + CS(=O)(=O)N1CCN(Cc2cc3nc(-c4cccc5[nH]ncc45)nc(N4CCOCC4)c3s2)CC1 [Pictilisib] (partner 1 µM)
In a few lines:
as §1

Compound in the experiment “Carboplatin + Pictilisib”: C1CC(C1)(C(=O)O)C(=O)O.[NH2-].[NH2-].[Pt+2] [Carboplatin] + CS(=O)(=O)N1CCN(Cc2cc3nc(-c4cccc5[nH]ncc45)nc(N4CCOCC4)c3s2)CC1 [Pictilisib] (partner 1 µM)
The method in brief:
as §1

Compound in the experiment “GSK126 + Palbociclib”: CC[C@H](C)N1C=C(C2=C(C=C(C=C21)C3=CN=C(C=C3)N4CCNCC4)C(=O)NCC5=C(C=C(NC5=O)C)C)C [GSK126] + CC(=O)c1c(C)c2cnc(Nc3ccc(N4CCNCC4)cn3)nc2n(C2CCCC2)c1=O [Palbociclib] (partner 0.5 µM)
The method in brief: as §1

For UMC-11, the relative viability was determined as 0.695 with GSK126 + Decitabine (first compound 0.08 µM); 0.557 with GSK126 + Decitabine (first compound 0.253 µM); 0.626 in the experiment with GSK126 + Decitabine (first compound 0.8 µM); 0.604 in the experiment with GSK126 + Decitabine (first compound 2.53 µM); 0.658 with GSK126 + Decitabine (first compound 8 µM); 0.593 with MLN4924 + Pictilisib (first compound 0.04 µM). Further, the relative viability with MLN4924 + Pictilisib (first compound 0.1265 µM) turned out to be 0.357; in the experiment with MLN4924 + Pictilisib (first compound 0.4 µM), 0.267; with MLN4924 + Pictilisib (first compound 1.265 µM), 0.14; with MLN4924 + Pictilisib (first compound 4 µM), 0.14; in the experiment with Carboplatin + Pictilisib (first compound 0.08 µM), 0.779; with Carboplatin + Pictilisib (first compound 0.253 µM), 0.777. For the same cell line, the relative viability with Carboplatin + Pictilisib (first compound 0.8 µM) came to 0.76; with Carboplatin + Pictilisib (first compound 2.53 µM) it was 0.78; with Carboplatin + Pictilisib (first compound 8 µM), 0.587; with GSK126 + Palbociclib (first compound 0.08 µM), 0.353; with GSK126 + Palbociclib (first compound 0.253 µM) it was 0.32; with GSK126 + Palbociclib (first compound 0.8 µM) it was 0.328. The relative viability with GSK126 + Palbociclib (first compound 2.53 µM) is 0.405; with GSK126 + Palbociclib (first compound 8 µM) it was 0.344.
